Assay results from patent US9217743B2, “Screening method utilizing thalidomide-targeting factor” (Tokyo Institute of Technology, priority 2009, dated 2015).
Entries after “also recorded” stand apart in the source; their conditions may differ.

Assays:
fgf8a = assay: Whole-mount in situ hybridization of zebrafish fin buds; type: in vivo; conditions: AMO injected embryos
Excerpt: (§1) To obtain a clue to the pathway(s) downstream of CRBN and thalidomide, the present inventors analyzed well-known key molecules in fin development. Sonic hedgehog (Shh) is expressed in the zone of polarizing activity (ZPA) and is responsible for anteroposterior patterning of the limb and fin (Cited Literature 27), whereas Fgf8 is expressed in the apical ectodermal ridge (AER) of the limb and fin and is necessary for outgrowth of the limb and fin along the proximodistal axis. […] Thus, an inhibitor of FGF8 production is a possible downstream target of thalidomide and the CRBN-containing E3 complex.
(§2) This assay was carried out in accordance with Cited Literature 41. Antisense probe for zcrbn mRNA was directed against the 5′-coding region of 513 bp. Antisense probe for zcul4a was directed against the 3′ untranslated region (3′ UTR) of 590 bp. Probes for shh and fgf8 were kindly provided by Dr. Krauss and Dr. Thisse, respectively. To increase permeability of probes, fixed embryos were incubated with PBS containing 0.1% Tween-20 and […] proteinase K for two minutes at room temperature.

shh = assay: as above; type: in vivo; conditions: AMO injected embryos
Excerpt: as §1, §2

zebrafish embryos = assay: Zebrafish embryo development, pectoral fins and otic vesicles; type: in vivo, zebrafish (Danio rerio); conditions: for fin and otic vesicle development: AMO injected into one cell stage embryos
CRBN = CRBN (Homo sapiens, UniProt Q96SW2); assay: Elution of CRBN from thalidomide-immobilized beads by test compound, Western blotting; conditions: for CRBN eluted from thalidomide-immobilized beads by the compound: 293T cell extracts, buffer containing 0.1 to 1 mM compound, one hour, Western blotting; for bindability with CRBN: concluded from elution from thalidomide-immobilized beads
Description: Firstly, thalidomide-immobilized FG beads are prepared. The immobilized beads are mixed and incubated with extracts of CRBN-expressing cells or recombinant proteins for one hour or longer in a rotator at 5 rpm and 4° C. Then, after the beads are washed with a buffer, for example, a buffer containing a thalidomide derivative as a test substance is passed through the beads to see whether CRBN is eluted. Examples of a detection method include Western blotting, dot blotting, CBB staining, and silver staining.

[1] = test system: multiple myeloma cell Kms12; assay: Growth inhibition of multiple myeloma cells, Cell Count-Reagent SF; type: cell-based, human; conditions: 48 hours, 37° C., 5% CO2
Description: KMS-12 cells were incubated with thalidomide or 5HPP-33 (100 μM) for 48 hours at 37° C. in 5% CO2. For measurement of the number of the living cells, Cell Count-Reagent SF (Nacalai Tesque, Inc.) was added to culture media for 2 hours at the end of the 48 hours culture. The absorbance at 450 nm was measured.
Multiple myeloma cell Kms12 were cultured in RPMI Medium 1640 containing 10% FBS. For treatment with drugs, the medium was adjusted to contain 2×10^5 Kms12 cells/ml and dispensed in 2 ml Eppendorf tubes in 2 ml aliquots. As the stock solution, thalidomide or 5HPP-33 were dissolved in dimethylsulfoxide (DMSO) at concentration of 100 mM and […] respectively. The stock solution was added to the cell suspension at 2 μl/2 ml, followed by gentle and thorough inversion mixing. Cell mixture was dispensed in a 96 well plate at 100 μl/well and cultured at 37° C. and 5% CO2 for 48 hours. For measurement of the number of the living cells, Cell Count-Reagent SF (Nacalai Tesque, Inc.) was added to culture media and incubated for 2 hours. The absorbance at 450 nm, which is correlate to the number, were measured by GloMax-Multi+ Detection System (Promega KK) For preparation of a calibration curve, 1×10^6, 3×10^5 and 1×10^5 Kms12 cells/ml were used. Defining the number of cells treated with the solvent as 100, the number of cells treated with the drugs were expressed as relative values.

DDB1 = assay: Elution of DDB1 from thalidomide-immobilized beads by test compound, Western blotting; conditions: Example 6; 293T extracts; elution with 1 mM compound

CRBN, sequence (Q96SW2 whole entry): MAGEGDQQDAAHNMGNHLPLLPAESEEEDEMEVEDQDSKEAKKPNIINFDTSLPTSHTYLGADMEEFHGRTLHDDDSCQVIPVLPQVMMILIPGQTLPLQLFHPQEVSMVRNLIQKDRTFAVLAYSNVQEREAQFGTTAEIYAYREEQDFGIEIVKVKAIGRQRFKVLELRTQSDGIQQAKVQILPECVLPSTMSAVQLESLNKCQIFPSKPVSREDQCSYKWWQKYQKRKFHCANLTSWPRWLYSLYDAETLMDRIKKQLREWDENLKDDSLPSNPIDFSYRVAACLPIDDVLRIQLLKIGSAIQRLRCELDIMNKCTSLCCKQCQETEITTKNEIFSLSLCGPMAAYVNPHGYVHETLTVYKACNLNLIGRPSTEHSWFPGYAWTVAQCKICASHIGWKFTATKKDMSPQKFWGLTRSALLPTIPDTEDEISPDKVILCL

Row | Molecule | fgf8a expression (fgf8a) | shh expression (shh) | fin and otic vesicle development (zebrafish embryos) | size of otic vesicles, of the control size (zebrafish embryos; knockdown embryos at 27 hpf) [%] | CRBN eluted from thalidomide-immobilized beads by the compound (CRBN) | bindability with CRBN (CRBN) | proliferation of the multiple myeloma cell Kms12 [1] | reduction of the size of otic vesicles compared to wild type (zebrafish embryos; AMO-injected embryos at 27 hpf) [%] | CRBN in the eluate fraction (CRBN; Example 6, 293T extracts, elution with 1 mM compound) | DDB1 in the eluate fraction (DDB1)
1 | zcul4a AMO: antisense morpholino oligo for zcul4a, 5′-CTGGTGCTGAACATCTTCTGCCATC-3′ (SEQ ID NO: 6) (all phosphorodiamidate morpholino (PMO)) | reduced | no difference | caused defects | 40 |  |  |  |  |  | 
2 | CC(C)c1cccc(C(C)C)c1N1C(=O)c2ccc(O)cc2C1=O [5HPP-33] |  |  |  |  | very little CRBN was eluted; also recorded: not eluted | low bindability and low and extremely low bindability | potent suppressive action; also recorded: potently suppressed; also recorded: growth inhibition |  |  | 
3 | zcrbn-AMO: antisense morpholino oligo for zcrbn, 5′-AGAGCTGTAGCTGGTTCCCCATTTC-3′ (SEQ ID NO: 5) (all phosphorodiamidate morpholino (PMO)) | reduced | no difference | exhibited defects |  |  |  |  | 40 |  | 
4 | O=C1NC(=O)c2ccccc21 [phthalimide] |  |  |  |  | very little CRBN was eluted; also recorded: not eluted | low bindability |  |  | not detected | not detected
